Holding throughout (settings): incubation time: 72 h
The test system of assay [1] is CAL-51. Put plainly: drug sensitivity score (DSS), CellTiter-Glo (DSS (AUC-based score)); higher = stronger drug effect (viability inhibition or cytotoxicity); extreme values may be limits of the assay. Put shortly:
(§1)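 In 384-well plates, compound was laid out at 5 concentrations in 10-fold steps over a 10,000-fold range specific to each compound, and breast cancer cell lines were seeded on top in 20 µl suspension for a 72 h incubation. CellTox Green fluorescence and then CellTiter-Glo luminescence were read, and each plate was normalised to 0.1 % DMSO and a positive kill control. The drug sensitivity score was calculated from the area under the fitted dose-response curve.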
(In general: ATP-based viability assays read luminescence as a measure of living cells.)

In assay [2] the test system is HDQ-P1. The assay is described as above. The essentials: as §1
Assay [3] deals with MDA-MB-453. The assay is described as above. Put shortly: as §1
In assay [4] the test system is SK-BR-3. The assay is described as above. The essentials: as §1
For assay [5], the system named is CAL-120. The assay is described as follows: normalised viability (% of control), CellTiter-Blue; higher = more viable cells (about 100 = DMSO control). On the procedure:
(§2)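 DSRT, CellTiter-Blue viability, 72 h incubation. Signal is normalised to DMSO and benzethonium chloride controls. Value is the normalised response at dose 3.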
A general note: The colour change of resazurin is a common sign of viable cells or microbes.

Assay [6] deals with CAL-51. Described as above. On the procedure:
as §2

Assay [7] relates to CAL-85-1. Described as above. Here is the method: as §2
Assay [8] has as its system DU-4475. The description is as above. Here is the method:
as §2

The test system of assay [9] is HCC1937. Described as above. On the procedure:
as §2

Assay [10] relates to Hs578T. Described as above. Here is the method: as §2
Assay [11] relates to MDA-MB-231. Described as above. On the procedure: as §2
Assay [12] concerns MDA-MB-468. Described as above. Here is the method: as §2
Assay [13] concerns MFM-223. The description is as above. Here is the method:
as §2

The test system of assay [14] is BT-474. Put plainly: normalised viability (% of control), CellTiter-Blue; higher = more viable cells (about 100 = DMSO control). Put shortly:
(§3)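 384-well plates were pre-loaded with compound in 5 µl medium before 20 µl of breast cancer cell suspension was seeded. Following 72 h incubation, 2.5 µl CellTiter-Blue reagent was added for 2 h at 37 °C. Fluorescence was read at 560/590 nm and plates were normalised to vehicle (100) and a positive kill control (0), checked by Z'-factor. Normalised viability is reported at a single listed concentration of the series.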

Assay [15] concerns BT-549. Described as above. The essentials:
as §3

For assay [16], the system named is CAL-120. The description is as above. Put shortly:
as §3
The source holds these as a separate data set.

Assay [17] has as its system CAL-148. Described as above. The essentials:
as §3

Assay [18] relates to CAL-51. The description is as above. The essentials:
as §3
This is another data set of the same source.

Assay [19] deals with CAL-85-1. The description is as above. The essentials:
as §3
This is another data set of the same source.

The test system of assay [20] is DU-4475. The description is as above. The essentials: as §3
The source holds these as a separate data set.

Assay [21] relates to HCC1143. The description is as above. The essentials:
as §3

Assay [22] has as its system HCC1599. Described as above. Put shortly:
as §3

In assay [23] the test system is HCC1937. The description is as above. The essentials: as §3
The source holds these as a separate data set.

The test system of assay [24] is HDQ-P1. Described as above. Put shortly:
as §3

Assay [25] concerns Hs578T. The assay is described as above. The essentials: as §3
The source holds these as a separate data set.

In assay [26] the test system is MDA-MB-231. Described as above. Put shortly:
as §3
This is another data set of the same source.

For assay [27], the system named is MDA-MB-436. The description is as above. The essentials: as §3
The test system of assay [28] is MDA-MB-453. The description is as above. The essentials:
as §3

For assay [29], the system named is MDA-MB-468. The assay is described as above. The essentials:
as §3
The source holds these as a separate data set.

Assay [30] concerns MFM-223. Described as above. The essentials:
as §3
The source holds these as a separate data set.

Assay [31] concerns SK-BR-3. Described as above. Put shortly: as §3

Consider `Nc1ncnc2c1c(COc1cccc(Cl)c1)nn2C1CCOCC1`, for which the drug sensitivity score in assay [1], in assay [2], in assay [3] and in [4] was 0 in each case.
As for `COc1ccc(-c2ccc3c(N4CCOC[C@@H]4C)nc(N4CCOC[C@@H]4C)nc3n2)cc1CO` [AZD8055], the normalised viability in [5] (100 nM) was 32.5%; in [6] (10 nM), 67.4%; in [7] (10 nM), 79.8%; in [8] (10 nM) it was 102%; in assay [9] (100 nM), 42.6%; in [10] (100 nM) it was 33.7%. For the same molecule, the normalised viability was found to be 50% in assay [11] (100 nM); 70% in [12] (100 nM); 26.6% in [13] (100 nM); 26.9% in assay [14] (1000 nM); 18.7% in assay [15] (1000 nM); 13.9% in assay [16] (1000 nM). Also, the normalised viability in [17] (30 nM) is 53%; in assay [18] (30 nM), 47.5%; in assay [19] (30 nM), 56.9%; in assay [20] (30 nM), 75.8%; in assay [21] (1000 nM), 32.5%; in assay [22] (1000 nM), 46.4%. Further, the normalised viability is 32.6% in [23] (1000 nM); 53.1% in [24] (30 nM); 23.7% in [25] (1000 nM); 23.9% in [26] (1000 nM); 32.5% in assay [27] (1000 nM); 33.6% in assay [28] (30 nM). The normalised viability in [29] (1000 nM) was 29.1%; in [30] (1000 nM), 18%; in assay [31] (1000 nM) it was 13%. Further, the drug sensitivity score is 23.4 in [1], 20.9 in assay [2], 22.2 in assay [3] and 30.3 in [4].
For the molecule `C[C@]12CC[C@H](O)CC1=CC[C@@H]1[C@@H]2CC[C@]2(C)C(c3cccnc3)=CC[C@@H]12` [Abiraterone], the normalised viability in [5] (50 nM) is 87.6%; in [6] (5 nM), 106%; in assay [7] (5 nM), 91.1%; in assay [8] (5 nM) it was 94%; in [9] (50 nM), 98.9%; in [10] (50 nM), 91.7%. For the same molecule, the normalised viability in [11] (50 nM) amounted to 95.6%; in assay [12] (50 nM), 107%; in [13] (50 nM) it was 98%; in assay [14] (500 nM), 116%; in assay [15] (500 nM), 111%; in [16] (500 nM), 81.4%. The normalised viability in assay [17] (15 nM) came to 84.2%; in assay [18] (15 nM), 107%; in assay [19] (15 nM), 80.5%; in [20] (15 nM), 80.8%; in [21] (500 nM), 80.2%; in assay [22] (500 nM) it was 385%. For the same molecule, the normalised viability in [23] (500 nM) was found to be 83%; in assay [24] (15 nM) it was 108%; in [25] (500 nM) it was 116%; in [26] (500 nM), 106%; in assay [27] (500 nM), 104%; in assay [28] (15 nM), 110%. The normalised viability worked out at 106% in assay [29] (500 nM), 96.6% in assay [30] (500 nM) and 101% in assay [31] (500 nM). The drug sensitivity score in assay [1] is 3.91; in [2], 0; in assay [3], 0; in [4] it was 0.
As for `CN(C)CCN1C(=O)c2cccc3cc(N)cc(c23)C1=O` [Amonafide], the normalised viability in assay [5] (100 nM) was 95.4%; in [6] (10 nM) it was 111%; in [7] (10 nM), 91.6%; in assay [8] (10 nM), 95.8%; in assay [9] (100 nM) it was 109%; in [10] (100 nM), 84.8%. Moreover, the normalised viability in assay [11] (100 nM) worked out at 88%; in assay [12] (100 nM) it was 113%; in assay [13] (100 nM) it was 87.5%; in assay [14] (1000 nM) it was 108%; in assay [15] (1000 nM) it was 102%; in assay [16] (1000 nM), 78.7%. The normalised viability was found to be 85.8% in assay [17] (30 nM); 102% in assay [18] (30 nM); 79.8% in [19] (30 nM); 83.2% in assay [20] (30 nM); 86.3% in [21] (1000 nM); 101% in assay [22] (1000 nM). For the same molecule, the normalised viability in assay [23] (1000 nM) was 69.2%; in [24] (30 nM), 104%; in [25] (1000 nM), 115%; in assay [26] (1000 nM), 67.8%; in assay [27] (1000 nM) it was 95.7%; in assay [28] (30 nM), 85.7%. Also, the normalised viability is 106% in [29] (1000 nM), 99.3% in [30] (1000 nM) and 98.7% in assay [31] (1000 nM). In addition, the drug sensitivity score was 2.87 in assay [1], 0 in assay [2], 0 in assay [3] and 3.61 in [4].
On to `CC(C)(C#N)c1cc(Cn2cncn2)cc(C(C)(C)C#N)c1` [Anastrozole], for which the normalised viability in assay [5] (100 nM) was 88.5%; in assay [6] (10 nM), 109%; in assay [7] (10 nM) it was 90.7%; in assay [8] (10 nM), 98.6%; in assay [9] (100 nM), 93.1%; in [10] (100 nM) it was 88.4%. The normalised viability in assay [11] (100 nM) came out at 92.7%; in assay [12] (100 nM), 107%; in assay [13] (100 nM) it was 94.2%; in assay [14] (1000 nM) it was 101%; in [15] (1000 nM), 99.1%; in assay [16] (1000 nM), 89.5%. Moreover, the normalised viability in [17] (30 nM) is 96.8%; in assay [18] (30 nM) it was 106%; in assay [19] (30 nM) it was 86.5%; in assay [20] (30 nM), 94.2%; in assay [21] (1000 nM), 83.5%; in assay [22] (1000 nM) it was 88.3%. For the same molecule, the normalised viability in assay [23] (1000 nM) was 95.4%; in assay [24] (30 nM), 89.2%; in assay [25] (1000 nM), 95.7%; in [26] (1000 nM) it was 80.4%; in [27] (1000 nM), 83.6%; in assay [28] (30 nM), 91%. Also, the normalised viability in assay [29] (1000 nM) was determined as 101%; in assay [30] (1000 nM) it was 90.4%; in [31] (1000 nM), 98.7%. Further, the drug sensitivity score in assay [1], in assay [2], in assay [3] and in assay [4] was 0 each time.
For the molecule `CC(C)c1c(C(=O)Nc2ccccc2)c(-c2ccccc2)c(-c2ccc(F)cc2)n1CC[C@@H](O)C[C@@H](O)CC(=O)O` [Atorvastatin], the drug sensitivity score in assay [1] was found to be 6.03; in [2], 5.79; in assay [3] it was 0.00416; in assay [4] it was 0.

Values taken from the supplement of paper PMC4862054.
